Measurements as given in US9302999B2, “Substituted triazoles as herbicides” (E. I. DU PONT DE NEMOURS AND COMPANY, priority 2012, dated 2016).

How the values were obtained:
Assay type in all cases: in vivo
[1] = tested on: chickweed (common chickweed, Stellaria media); assay: Test C postemergence: chickweed
Method in brief: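 Response values are visual ratings, 0 (no effect) to 100 (complete control), made by comparison with untreated controls 13 to 15 days after postemergence treatment of greenhouse-grown potted plants that were 2 to 18 cm high at spraying.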

[2] = tested on: morningglory (Ipomoea spp.); assay: Test A pre-/postemergence: morningglory
Method in brief: (§1)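 Compounds, formulated with surfactant in non-phytotoxic solvent, were applied as a directed soil spray preemergence and as postemergence sprays to 2–10 cm, one- to two-leaf seedlings grown in loam soil blended with sand; visual injury, 0–100, assessed ~10 days post-treatment against untreated controls.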

[3] = tested on: ryegrass, Italian (Italian ryegrass, Lolium multiflorum); assay: Test C pre-/postemergence: ryegrass, Italian
Method in brief: (§2)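 Visual injury scored 0–100 (100 = complete control) against untreated controls after 13–15 greenhouse days. Surfactant-containing solvent formulations applied either to soil after sowing (loam/sand) or over 1- to 4-leaf plants, 2–18 cm tall.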

[4] = tested on: wheat (Triticum aestivum); assay: Test A pre-/postemergence: wheat
Method in brief: as §1

corn (Zea mays) = assay: Test A pre-/postemergence: corn
Method in brief: as §1

[5] = tested on: morningglory (Ipomoea coccinea); assay: Test C pre-/postemergence: morningglory; settings: Preemergence
Method in brief: as §2

[6] = tested on: lambsquarters (Chenopodium album); assay: Test C pre-/postemergence: lambsquarters; settings: Postemergence
Method in brief: as §2

[7] = tested on: pigweed (Amaranthus retroflexus); assay: Test A pre-/postemergence: pigweed
Method in brief: as §1

[8] = tested on: pigweed (Amaranthus retroflexus); assay: Test C pre-/postemergence: pigweed
Method in brief: as §2

kochia (Kochia scoparia) = assay: Test C pre-/postemergence: kochia; settings: Postemergence
Method in brief: as §2

[9] = tested on: velvetleaf (Abutilon theophrasti); assay: Test A pre-/postemergence: velvetleaf
Method in brief: as §1

[10] = tested on: foxtail, giant (giant foxtail, Setaria faberii); assay: Test C pre-/postemergence: foxtail, giant
Method in brief: as §2

[11] = 31 g ai/ha, scale 0 to 100 (0 no effect, 100 complete control)
[12] = 62 g ai/ha, scale 0 to 100 (0 no effect, 100 complete control)
[13] = 125 g ai/ha, scale 0 to 100, 0 no effect, 100 complete control
[14] = Postemergence, 125 g ai/ha, 0 to 100 scale, 0 is no effect, 100 is complete control
[15] = Postemergence, 500 g ai/ha, visual rating on 0 to 100 scale (0 no effect, 100 complete control), approximately ten days
[16] = Preemergence, 125 g ai/ha, 0 to 100 scale where 0 is no effect and 100 is complete control
[17] = Preemergence, 500 g ai/ha, 0 to 100 scale (0 no effect, 100 complete control)
[18] = Postemergence, 31 g ai/ha, scale 0 to 100 (0 no effect, 100 complete control)
[19] = Postemergence, 62 g ai/ha, scale 0 to 100 (0 no effect, 100 complete control)
[20] = Postemergence, 125 g ai/ha, scale 0 to 100, 0 no effect, 100 complete control
[21] = Postemergence, 250 g ai/ha, scale 0 to 100
[22] = Preemergence, 31 g ai/ha, scale of 0 to 100, 0 is no effect, 100 is complete control
[23] = Preemergence, 62 g ai/ha, scale of 0 to 100, 0 is no effect, 100 is complete control
[24] = Preemergence, 125 g ai/ha, scale 0 to 100, 0 no effect, 100 complete control
[25] = Preemergence, 250 g ai/ha, scale 0 to 100, 0 no effect, 100 complete control

Cc1nn(-c2ccc(C(F)(F)F)c(F)c2)nc1Cc1ccnc(C(F)(F)F)c1 [Compound 162]
Plant response rating, Chickweed [1, 11]: 100 | Plant response rating, Chickweed [1, 12]: 100 | Plant response rating, Chickweed [1, 13]: 100 | Plant response rating, Chickweed ([1]; 250 g ai/ha, scale 0 to 100): 100 | Plant response rating, Morningglory [2, 14]: 90 | Morningglory plant response rating [2, 15]: 90 | Plant response rating, Morningglory [2, 16]: 30 | Plant response rating, Morningglory [2, 17]: 90 | Plant response rating, Ryegrass, Italian [3, 18]: 30 | Plant response rating, Ryegrass, Italian [3, 19]: 35 | Plant response rating, Ryegrass, Italian [3, 20]: 60 | Plant response rating, Ryegrass, Italian [3, 21]: 80 | Plant response rating, Ryegrass, Italian [3, 22]: 60 | Plant response rating, Ryegrass, Italian [3, 23]: 80 | Plant response rating, Ryegrass, Italian [3, 24]: 90 | Plant response rating, Ryegrass, Italian [3, 25]: 95 | Plant response rating, Wheat [4, 14]: 20 | Wheat plant response rating [4, 15]: 30 | Plant response rating, Wheat [4, 16]: 10 | Plant response rating, Wheat [4, 17]: 30 | Plant response rating, Corn (corn (Zea mays); [14]): 20 | Corn plant response rating (corn (Zea mays); [15]): 40 | Plant response rating, Corn (corn (Zea mays); [16]): 20 | Plant response rating, Corn (corn (Zea mays); [17]): 30 | Plant response rating, Morningglory ([5]; 31 g ai/ha, scale of 0 to 100, 0 is no effect, 100 is complete control): 55 | Plant response rating, Morningglory ([5]; 62 g ai/ha, scale of 0 to 100, 0 is no effect, 100 is complete control): 60 | Plant response rating, Morningglory [5, 13]: 80 | Plant response rating, Morningglory ([5]; 250 g ai/ha, scale 0 to 100, 0 no effect, 100 complete control): 85 | Plant response rating, Lambsquarters [6, 11]: 95 | Plant response rating, Lambsquarters [6, 12]: 95 | Plant response rating, Lambsquarters [6, 13]: 98 | Plant response rating, Lambsquarters ([6]; 250 g ai/ha, scale 0 to 100): 98 | Plant response rating, Pigweed [7, 14]: 100 | Pigweed plant response rating [7, 15]: 100 | Plant response rating, Pigweed [7, 16]: 100 | Plant response rating, Pigweed [7, 17]: 100 | Plant response rating, Pigweed [8, 18]: 85 | Plant response rating, Pigweed [8, 19]: 85 | Plant response rating, Pigweed [8, 20]: 90 | Plant response rating, Pigweed [8, 21]: 95 | Plant response rating, Pigweed [8, 22]: 100 | Plant response rating, Pigweed [8, 23]: 100 | Plant response rating, Pigweed [8, 24]: 100 | Plant response rating, Pigweed [8, 25]: 100 | Plant response rating, Kochia (kochia (Kochia scoparia); [11]): 90 | Plant response rating, Kochia (kochia (Kochia scoparia); [12]): 90 | Plant response rating, Kochia (kochia (Kochia scoparia); [13]): 95 | Plant response rating, Kochia (kochia (Kochia scoparia); 250 g ai/ha, scale 0 to 100): 95 | Plant response rating, Velvetleaf [9, 14]: 90 | Velvetleaf plant response rating [9, 15]: 100 | Plant response rating, Velvetleaf [9, 16]: 100 | Plant response rating, Velvetleaf [9, 17]: 100 | Plant response rating, Foxtail, Giant [10, 18]: 45 | Plant response rating, Foxtail, Giant [10, 19]: 55 | Plant response rating, Foxtail, Giant [10, 20]: 65 | Plant response rating, Foxtail, Giant [10, 21]: 98 | Plant response rating, Foxtail, Giant [10, 22]: 98 | Plant response rating, Foxtail, Giant [10, 23]: 100 | Plant response rating, Foxtail, Giant [10, 24]: 100 | Plant response rating, Foxtail, Giant [10, 25]: 100
